The values below come from patent US10508104B2, “6-hydroxy-5-(phenyl/heteroarylsulfonyl)pyrimidin-4(1H)-one as APJ agonists” (Bristol-Myers Squibb Company, priority 2016, dated 2019).

This assay concerns the target human APJ receptor (Homo sapiens (Human), UniProt P35414). The assay is described as follows: Intracellular cAMP accumulation assay (APJ hcAMP, HTRF). Type of assay: cell-based. The settings on record: read-out: Human APJ cAMP EC50 Potency range. The method, boiled down: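 HEK293 cells stably expressing human APJ, 5,000 per well, incubated 30 min at rt with compound, […] and 2 μM forskolin. cAMP measured by HTRF against a cAMP standard curve as inhibition of forskolin-driven production. EC50 from variable-slope sigmoidal fit.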

Setting [1] is: human APJ, intracellular cAMP accumulation.
Setting [2] is: HEK293 cells stably expressing human APJ receptor, inhibition of forskolin-mediated cAMP production.

Where two headings read alike, the source gives them in different places.

Sequence of human APJ receptor (P35414 whole entry): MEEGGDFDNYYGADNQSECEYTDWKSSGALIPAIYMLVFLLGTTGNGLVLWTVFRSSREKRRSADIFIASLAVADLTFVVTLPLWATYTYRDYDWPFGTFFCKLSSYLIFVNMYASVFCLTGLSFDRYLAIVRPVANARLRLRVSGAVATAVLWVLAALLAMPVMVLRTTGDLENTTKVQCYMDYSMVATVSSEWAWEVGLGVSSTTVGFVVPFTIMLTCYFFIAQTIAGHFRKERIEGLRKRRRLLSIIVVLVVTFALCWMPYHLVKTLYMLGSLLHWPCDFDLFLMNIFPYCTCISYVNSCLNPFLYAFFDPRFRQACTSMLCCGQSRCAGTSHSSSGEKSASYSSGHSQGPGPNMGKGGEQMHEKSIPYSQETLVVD

Turning to `CCCCc1nc(=O)c(S(=O)(=O)C2CCN(C(=O)C3CC3)CC2)c(O)n1-c1c(OC)cccc1OC` [Example 113, 2-butyl-5-[(1-cyclopropanecarbonyl-piperidin-4-yl)sulfonyl]-1-(2,6-dimethoxyphenyl)-6-hydroxy-1,4-dihydropyrimidin-4-one], the EC50 under setting [1] lay within 0.01 to 10 nM.

For the compound `CCCCc1nc(=O)c(S(=O)(=O)C2CCN(C(=O)CC(F)(F)F)CC2)c(O)n1-c1c(OC)cccc1OC` [Example 114, 2-butyl-1-(2,6-dimethoxyphenyl)-6-hydroxy-5-{[1-(3,3,3-trifluoropropanoyl)piper-idin-4-yl]sulfonyl}-1,4-dihydropyrimidin-4-one], the EC50 under setting [1] fell in the range of 0.01 to 10 nM. `CCCCc1nc(=O)c(S(=O)(=O)c2ccc(C(=O)NN)cc2)c(O)n1-c1c(OC)cccc1OC` [Example 116, 4-((2-Butyl-1-(2,6-dimethoxyphenyl)-6-hydroxy-4-oxo-1,4-dihydropyrimidin-5-yl)sulfonyl)benzohydrazide]: the EC50 under setting [2] fell in the range of 0.01 to 10 nM. For the compound `CCCCc1nc(=O)c(S(=O)(=O)c2ccc(-c3nnc(C4CC4)o3)cc2)c(O)n1-c1c(OC)cccc1OC` [Example 117, 2-butyl-5-[4-(5-cyclopropyl-1,3,4-oxadiazol-2-yl)benzenesulfonyl]-1-(2,6-dimethoxyphenyl)-6-hydroxy-1,4-dihydropyrimidin-4-one], under setting [1], the EC50 was 0.01 to 10 nM.

Consider `CCCCc1nc(=O)c(S(=O)(=O)c2ccc(Br)cc2)c(O)n1[C@@H](C)c1ccccc1` [Example 118, (S)-5-((4-Bromophenyl)sulfonyl)-2-butyl-6-hydroxy-1-(1-phenylethyl)pyrimidin-4(1H)-one], for which the EC50 under setting [2] was 100 to 300 nM. Take `CCCCc1nc(=O)c(S(=O)(=O)c2ccc(Br)cc2)c(O)n1[C@@H](COC)c1ccccc1` [Example 119, 5-(4-bromobenzenesulfonyl)-2-butyl-6-hydroxy-1-[(1R)-2-methoxy-1-phenylethyl]-1,4-dihydropyrimidin-4-one]: the EC50 under setting [1] is 10 to 100 nM.

On to `CCCCc1nc(=O)c(S(=O)(=O)c2ccc(Br)cc2)c(O)n1[C@H]1CCc2ccccc21` [Example 120, 5-(4-bromobenzenesulfonyl)-2-butyl-1-[(1S)-2,3-dihydro-1H-inden-1-yl]-6-hydroxy-1,4-dihydropyrimidin-4-one], for which the EC50 under setting [1] was in the range of 10 to 100 nM.

In the case of `CCCCc1nc(=O)c(S(=O)(=O)c2ccc(Br)cc2)c(O)n1[C@H](C)c1cccc(C#N)c1` [Example 121, 3-[(1R)-1-[5-(4-bromobenzenesulfonyl)-2-butyl-6-hydroxy-4-oxo-1,4-dihydropyrimidin-1-yl]ethyl]benzonitrile], under setting [1], the EC50 fell in the range of 100 to 300 nM. For `CCCCc1nc(=O)c(S(=O)(=O)c2ccc(Br)cc2)c(O)n1[C@@H](C)c1cccc(C#N)c1` [Example 122, 3-[(1S)-1-[5-(4-bromobenzenesulfonyl)-2-butyl-6-hydroxy-4-oxo-1,4-dihydropyrimidin-1-yl]ethyl]benzonitrile], under setting [1], the EC50 lay within 10 to 100 nM. Turning to `COC[C@@H](c1ccccc1)n1c(CC2CC2)nc(=O)c(S(=O)(=O)c2ccc(Br)cc2)c1O` [Example 123, 5-(4-bromobenzenesulfonyl)-2-(cyclopropylmethyl)-6-hydroxy-1-[(1R)-2-methoxy-1-phenylethyl]-1,4-dihydropyrimidin-4-one], the concentration giving a half-maximal response (EC50) under setting [1] lay within 100 to 300 nM. As to `CCCCc1nc(=O)c(S(=O)(=O)c2ccc(Br)cc2)c(O)n1[C@@H](CC)c1cccc(OC)c1` [Example 124, 5-(4-bromobenzenesulfonyl)-2-butyl-6-hydroxy-1-[(1S)-1-(3-methoxyphenyl)propyl]-1,4-dihydropyrimidin-4-one], the EC50 under setting [1] was 10 to 100 nM. On the same count and under the same terms, to `CCCc1nc(=O)c(S(=O)(=O)c2ccc(Br)cc2)c(O)n1[C@@H](COC)c1ccccc1` [Example 125, 5-(4-bromobenzenesulfonyl)-6-hydroxy-1-[(1R)-2-methoxy-1-phenylethyl]-2-propyl-1,4-dihydropyrimidin-4-one] belongs 100 to 300 nM. Consider `CCCCc1nc(=O)c(S(=O)(=O)c2ccc(Br)cc2)c(O)n1[C@H](CC)c1ccccc1` [Example 126, 5-(4-bromobenzenesulfonyl)-2-butyl-6-hydroxy-1-[(1R)-1-phenylpropyl]-1,4-dihydropyrimidin-4-one], for which the EC50 under setting [1] is 10 to 100 nM.

In the case of `CCCCc1nc(=O)c(S(=O)(=O)c2ccc(Br)cc2)c(O)n1[C@H](C)c1ccccc1` [Example 127, 5-(4-bromobenzenesulfonyl)-2-butyl-6-hydroxy-1-[(1R)-1-phenylethyl]-1,4-dihydropyrimidin-4-one], the EC50 under setting [1] fell in the range of 10 to 100 nM. Take `CCCCc1nc(=O)c(S(=O)(=O)c2ccc(-c3cncc(F)c3)cc2)c(O)n1[C@@H](C)c1ccccc1` [Example 128, (S)-2-Butyl-5-((4-(5-fluoropyridin-3-yl)phenyl)sulfonyl)-6-hydroxy-1-(1-phenylethyl)pyrimidin-4(1H)-one]: the EC50 under setting [2] lay in the range of 0.01 to 10 nM. For the compound `CCCCc1nc(=O)c(S(=O)(=O)c2ccc(C)cc2)c(O)n1[C@@H](C)c1ccccc1` [Example 129, 2-butyl-6-hydroxy-5-(4-methylbenzenesulfonyl)-1-[(1S)-1-phenylethyl]-1,4-dihydropyrimidin-4-one], the EC50 under setting [1] fell in the range of 100 to 300 nM. As for `CCCCc1nc(=O)c(S(=O)(=O)c2ccc(C)cc2)c(O)n1[C@H](C)c1ccccc1` [Example 130, 2-butyl-6-hydroxy-5-(4-methylbenzenesulfonyl)-1-[(1R)-1-phenylethyl]-1,4-dihydropyrimidin-4-one], the EC50 under setting [1] was 10 to 100 nM. Turning to `CCCCc1nc(=O)c(S(=O)(=O)c2ccc(-c3cncc(F)c3)cc2)c(O)n1[C@H](C)c1ccccc1` [Example 131, 2-butyl-5-[4-(5-fluoropyridin-3-yl)benzenesulfonyl]-6-hydroxy-1-[(1R)-1-phenylethyl]-1,4-dihydropyrimidin-4-one], the EC50 under setting [1] lay in the range of 10 to 100 nM.

Regarding `CCCCc1nc(=O)c(S(=O)(=O)c2ccc(-c3cncc(F)c3)cc2)c(O)n1[C@@H](COC)c1ccccc1` [Example 132, 2-butyl-5-[4-(5-fluoropyridin-3-yl)benzenesulfonyl]-6-hydroxy-1-[(1R)-2-methoxy-1-phenylethyl]-1,4-dihydropyrimidin-4-one], the EC50 under setting [1] was 0.01 to 10 nM. The same measure, in the same setting: then `CCCCc1nc(=O)c(S(=O)(=O)c2ccc(-c3ccc(F)nc3)cc2)c(O)n1[C@@H](COC)c1ccccc1` [Example 133, 2-butyl-5-[4-(6-fluoropyridin-3-yl)benzenesulfonyl]-6-hydroxy-1-[(1R)-2-methoxy-1-phenylethyl]-1,4-dihydropyrimidin-4-one], with 0.01 to 10 nM; and `CCCCc1nc(=O)c(S(=O)(=O)c2ccc(-c3ccncc3C)cc2)c(O)n1[C@@H](COC)c1ccccc1` [Example 134, 2-butyl-6-hydroxy-1-[(1R)-2-methoxy-1-phenylethyl]-5-[4-(3-methylpyridin-4-yl)benzenesulfonyl]-1,4-dihydropyrimidin-4-one], with 0.01 to 10 nM; and `CCCCc1nc(=O)c(S(=O)(=O)c2ccc(-c3ccc(F)nc3)cc2)c(O)n1[C@@H](C)c1ccccc1` [Example 135, 2-butyl-5-[4-(6-fluoropyridin-3-yl)benzenesulfonyl]-6-hydroxy-1-[(1S)-1-phenylethyl]-1,4-dihydropyrimidin-4-one], with 0.01 to 10 nM.

As to `CCCCc1nc(=O)c(S(=O)(=O)c2ccc(-c3ccc(F)nc3)cc2)c(O)n1[C@H](C)c1ccccc1` [Example 136, 2-butyl-5-[4-(6-fluoropyridin-3-yl)benzenesulfonyl]-6-hydroxy-1-[(1R)-1-phenylethyl]-1,4-dihydropyrimidin-4-one], under setting [1], the EC50 was in the range of 0.01 to 10 nM. Still for that read-out and setting: to `CCCCc1nc(=O)c(S(=O)(=O)c2ccc(C)cc2)c(O)n1[C@@H](COC)c1ccccc1` [Example 137, 2-butyl-6-hydroxy-1-[(1R)-2-methoxy-1-phenylethyl]-5-(4-methylbenzenesulfonyl)-1,4-dihydropyrimidin-4-one] belongs 0.01 to 10 nM; to `CCCCc1nc(=O)c(S(=O)(=O)c2ccc(-c3ccncc3C)cc2)c(O)n1[C@@H](C)c1ccccc1` [Example 138, 2-butyl-6-hydroxy-5-[4-(3-methylpyridin-4-yl)benzenesulfonyl]-1-[(1S)-1-phenylethyl]-1,4-dihydropyrimidin-4-one], 0.01 to 10 nM; to `CCCCc1nc(=O)c(S(=O)(=O)c2ccc(-c3ccncc3C)cc2)c(O)n1[C@H](C)c1ccccc1` [Example 139, 2-butyl-6-hydroxy-5-[4-(3-methylpyridin-4-yl)benzenesulfonyl]-1-[(1R)-1-phenylethyl]-1,4-dihydropyrimidin-4-one], 0.01 to 10 nM. Same read-out and setting: to `CCCCc1nc(=O)c(S(=O)(=O)c2ccc(-c3cncc(F)c3)cc2)c(O)n1[C@@H](C)c1cccc(C#N)c1` [Example 140, 3-[(1S)-1-{2-butyl-5-[4-(5-fluoropyridin-3-yl)benzenesulfonyl]-6-hydroxy-4-oxo-1,4-dihydropyrimidin-1-yl}ethyl]benzonitrile] belongs 0.01 to 10 nM; to `CCCCc1nc(=O)c(S(=O)(=O)c2ccc(-c3ccc(F)nc3)cc2)c(O)n1[C@@H](C)c1cccc(C#N)c1` [Example 141, 3-[(1S)-1-{2-butyl-5-[4-(6-fluoropyridin-3-yl)benzenesulfonyl]-6-hydroxy-4-oxo-1,4-dihydropyrimidin-1-yl}ethyl]benzonitrile], 0.01 to 10 nM; to `CCCCc1nc(=O)c(S(=O)(=O)c2ccc(-c3ccncc3C)cc2)c(O)n1[C@@H](C)c1cccc(C#N)c1` [Example 142, 3-[(1S)-1-{2-butyl-6-hydroxy-5-[4-(3-methylpyridin-4-yl)benzenesulfonyl]-4-oxo-1,4-dihydropyrimidin-1-yl}ethyl]benzonitrile], 0.01 to 10 nM.

For the compound `CCCCc1nc(=O)c(S(=O)(=O)c2ccc(-c3ccncc3C)cc2)c(O)n1[C@H](CC)c1ccccc1` [Example 143, 2-butyl-6-hydroxy-5-[4-(3-methylpyridin-4-yl)benzenesulfonyl]-1-[(1R)-1-phenylpropyl]-1,4-dihydropyrimidin-4-one], under setting [1], the EC50 lay in the range of 0.01 to 10 nM.
